Like-named read-outs stand apart in the source and are kept apart here.
What was measured:
[1] = target: T1, rat ATB^0,+ (Rattus norvegicus, UniProt Q334I2); test: Inhibition of ATB0,+-mediated 3H-glycine uptake in HRPE cells expressing cloned rat ATB0,+; type: cell-based; conditions: for Inhibition of ATB0,+-mediated glycine transport (in words): 5 mM
T1 sequence (Q334I2 1-640): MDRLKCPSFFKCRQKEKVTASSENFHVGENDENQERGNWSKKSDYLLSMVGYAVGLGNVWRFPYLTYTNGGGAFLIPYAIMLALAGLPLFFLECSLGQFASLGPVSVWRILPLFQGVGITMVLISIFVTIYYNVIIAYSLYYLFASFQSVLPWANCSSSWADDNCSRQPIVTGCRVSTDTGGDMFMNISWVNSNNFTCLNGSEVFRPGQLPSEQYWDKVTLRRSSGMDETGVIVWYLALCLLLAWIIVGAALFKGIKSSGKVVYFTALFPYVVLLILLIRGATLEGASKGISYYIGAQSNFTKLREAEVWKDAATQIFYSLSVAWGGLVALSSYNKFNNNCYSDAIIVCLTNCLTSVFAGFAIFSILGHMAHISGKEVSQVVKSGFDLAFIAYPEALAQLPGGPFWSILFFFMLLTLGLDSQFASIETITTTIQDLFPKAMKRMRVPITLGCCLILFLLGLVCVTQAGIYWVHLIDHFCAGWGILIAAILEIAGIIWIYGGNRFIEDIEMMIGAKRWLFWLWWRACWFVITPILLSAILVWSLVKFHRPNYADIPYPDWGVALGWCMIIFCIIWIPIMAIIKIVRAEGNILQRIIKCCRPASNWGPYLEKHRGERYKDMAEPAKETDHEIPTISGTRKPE

[2] = target: T1, rat ATB^0,+; test: Substrate-induced inward currents in Xenopus oocytes expressing rat ATB0,+ (voltage clamp); type: cell-based; conditions: for Inward currents induced in ATB0,+-expressing oocytes (in words): 5 mM; for Inward currents induced in ATB0,+-expressing oocytes (in words) / K0.5 (substrate concentration for half-maximal current): voltage clamp; for K0.5 (substrate concentration for half-maximal current): ATB0,+-expressing oocytes
Procedure: Experiments with HRPE cells were repeated at least three times with three independent transfections and transport measurements made in duplicate in each experiment. Electrophysiological measurements of substrate-induced currents were repeated at least three times with separate oocytes. The data are presented as means±S.E.M. of these replicates. The kinetic parameters, Michaelis constant (Kt) and maximal velocity (Vmax) were calculated by fitting the ATB^0,+-specific transport data to the Michaelis-Menten equation describing a single saturable transport system. Na^+ and Cl^−-activation kinetics were analyzed by fitting the ATB^0,+-specific transport data to the Hill equation for the determination of K0.5 values for Na^+ and Cl^− (concentration of Na^+ and Cl^− necessary for half-maximal activation) and the Hill coefficient (nH; the number of Na^+ or Cl^− ions involved in the activation process). The kinetics parameters were first determined by non-linear regression methods and subsequently confirmed by linear regression methods using the commercially-available computer program SigmaPlot, version 6.0 (SPSS Inc., Chicago, Ill., US).
Therefore, it was necessary to determine whether or not the α-carboxyl esters of neutral amino acids are transportable substrates for ATB^0,+. For this purpose, we used the X. laevis oocyte expression system. Cloned rat ATB^0,+ was functionally expressed in oocytes by injection of corresponding cRNA, and the transport of substrates via the transporter was monitored by inward currents when the oocytes were exposed to putative substrates under voltage-clamp conditions.

[3] = system: SW480; conditions: SW480 cells; cited from earlier work
[4] = target: T2, human SLC5A8 (Homo sapiens, UniProt Q8N695, F251V/V193I); test: Two-microelectrode voltage clamp of substrate-induced currents in SLC5A8-expressing oocytes; type: cell-based; conditions: for K0.5 for SLC5A8: Na+ 100 mM
T2 construct: We amplified the coding region of SLC5A8 mRNA by RT-PCR using human intestinal mRNA as the template; expressed in transfected cells; host or cells: Xenopus laevis oocytes, 50 ng capped cRNA from the pGH19 construct
T2 sequence (Q8N695 1-610 V193I/F251V): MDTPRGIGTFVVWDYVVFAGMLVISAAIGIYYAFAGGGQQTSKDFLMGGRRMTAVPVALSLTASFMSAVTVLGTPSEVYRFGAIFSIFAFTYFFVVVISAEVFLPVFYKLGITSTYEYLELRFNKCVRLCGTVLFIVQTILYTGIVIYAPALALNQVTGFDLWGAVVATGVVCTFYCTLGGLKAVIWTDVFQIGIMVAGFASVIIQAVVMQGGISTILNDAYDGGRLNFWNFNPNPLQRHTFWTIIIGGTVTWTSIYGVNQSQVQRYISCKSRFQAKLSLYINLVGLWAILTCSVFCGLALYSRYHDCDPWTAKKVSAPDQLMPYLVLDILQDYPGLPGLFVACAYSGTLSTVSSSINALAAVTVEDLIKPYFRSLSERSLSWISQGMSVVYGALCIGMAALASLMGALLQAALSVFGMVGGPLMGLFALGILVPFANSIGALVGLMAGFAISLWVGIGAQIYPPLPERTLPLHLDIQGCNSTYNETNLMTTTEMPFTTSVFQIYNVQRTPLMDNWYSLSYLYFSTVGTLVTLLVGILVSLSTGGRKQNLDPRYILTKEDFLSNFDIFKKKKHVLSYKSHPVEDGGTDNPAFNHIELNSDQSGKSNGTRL
Procedure: (§1) The amplified human SLC5A8 cDNA was expressed heterologously in Xenopus oocytes by cRNA injection. Capped cRNA from SLC5A8 cDNA was synthesized using the mMESSAGE mMACHINE kit (Ambion Inc., Austin, Tex.). Mature oocytes (stage 1V or V) from Xenopus laevis were injected with 50 ng cRNA. Uninjected oocytes served as controls. The oocytes were used for uptake and electrophysiological studies 3-6 days after cRNA injection. Uptake of radiolabeled substrates in uninjected and cRNA-injected oocytes was determined as described previously (Fei, Y. J., et al., (1995) Biochemistry 34, 8744-8751).
(§2) Eight oocytes were used for each uptake measurement. Electrophysiological studies were performed by the two-microelectrode voltage clamp method (11. Wang, H., Fei, et al., (2000) Am. J. Physiol. 278:C1019-C1030; Inoue, K, et al. (2004) Biochem. J. 378:949-957).
Oocytes were perfused with a NaCl-containing buffer (100 mM NaCl, 2 mM KCl, 1 mM MgCl2, 1 mM CaCl2, 3 mM Hepes, 3 mM Mes, and 3 mM Tris, pH 7.5), followed by the same buffer containing different fatty acids. The membrane potential was clamped at −50 mV. The differences between the steady-state currents measured in the presence and absence of substrates were considered as the substrate-induced currents. To investigate the current-membrane potential (I—V) relationship, step changes in membrane potential were applied, each for a duration of 100 ms in 20-mV increments. The kinetic parameter K0.5 (i.e. the substrate concentration necessary for the induction of half-maxima) current) was calculated by fitting the values of the substrate-induced currents to Michaelis-Menten equation. The Na^+-activation kinetics was analyzed by measuring the substrate-specific currents in the presence of increasing concentrations of Na^+. The data were analyzed by the Hill equation to determine the Hill coefficient (h; the number of Na^+ ions involved in the activation process). The kinetic parameters were determined using the computer program Sigma Plot, version 6.0 (SPSS, Inc., Chicago, Ill.). Electrophysiological measurements of substrate-induced currents were repeated at least four times with separate oocytes. The data are presented as means±S.E. of these replicates.
The charge-to substrate transfer ratio was determined for propionate in four different oocytes as described previously (Wang, H., et al. (2000) Am. J. Physiol. 278:C1019-C1030 12. Inoue, K., Fei, Y. J., Zhuang, L., Gopal, E., Miyauchi, S., and Ganapathy, V. (2004) Biochem. J. 378:949-957). The oocytes were perfused with 25 μM propionate (unlabeled plus radiolabeled propionate), and inward currents were monitored over a period of 8-10 min. At the end of the experiment, the amount of propionate transported into the oocytes was calculated by measuring the radioactivity associated with the oocytes. The area within the curve describing the relationship between the time and inward current was integrated to calculate the charge transferred into the oocyte during incubation with propionate. The values for substrate transfer and charge transfer were used to determine the charge to substrate transfer ratio.

[5] = system: MCF7 cells transfected with SMCT1 cDNA; test: Colony formation assay in MCF7 cells transfected with SMCT1 cDNA; type: cell-based, human; conditions: SMCT1-expressing MCF7 cells; for IC50: two weeks
[6] = target: T2, human SLC5A8; test: Uptake of radiolabeled short-chain fatty acids in Xenopus oocytes injected with SLC5A8 cRNA; type: cell-based; parameters: Uptake, uninjected oocytes / Uptake, cRNA-injected oocytes: unit not given here; conditions: 1 h incubation; for Uptake, cRNA-injected oocytes: SLC5A8 cRNA-injected oocytes; for Uptake, uninjected oocytes: uninjected control oocytes
Procedure: as §1, §2
Uptake of short-chain fatty acids in uninjected oocytes and in oocytes injected with SLC5A8 cRNA was measured with 1 h incubation. Concentration of substrates (labeled plus unlabeled) varied in the range of 50-500 μM depending on the specific radioactivity of the substrates. Eight oocytes were used for each uptake measurement. Data represent means±SE.

CCCC(=O)OC[C@H](N)C(=O)O [O-butyryl-L-serine, O-Butyryl-L-serine]
IC50 [1]: 118 ± 8 µM | Kt of ATB0,+-mediated glycine transport in the presence of inhibitor ([1]; 5 mM inhibitor, HRPE cells): 102 ± 17 µM | Vmax of ATB0,+-mediated glycine transport in the presence of inhibitor ([1]; 5 mM inhibitor, HRPE cells): 47 ± 5 nmol/10^6 cells/30 minutes | Inhibition of ATB0,+-mediated glycine transport (in words) ([1]; HRPE cells): inhibited glycine transport significantly | Hill coefficient for Na+ ([2]; 2 mM substrate, Cl- 100 mM): 1.74±0.23 | K0.5 for Na+ ([2]; 2 mM substrate, Cl- 100 mM): 5.02 ± 0.25 mM | Hill coefficient for Cl- ([2]; 2 mM substrate, Na+ 100 mM): 1.33±0.02 | K0.5 for Cl- ([2]; 2 mM substrate, Na+ 100 mM): 6.28 ± 0.33 mM | Inward currents induced in ATB0,+-expressing oocytes (in words) [2]: induced marked inward currents

TGF-α: growth factor used as mitogenic stimulus in SW480 cells
Cell proliferation [3]: 37% | Increase of Na+-dependent arginine transport [3]: 100%

CC(=O)OC[C@H](N)C(=O)O [O-acetyl-L-serine]
Kt of ATB0,+-mediated glycine transport in the presence of inhibitor ([1]; 5 mM inhibitor, HRPE cells): 133 ± 36 µM | Vmax of ATB0,+-mediated glycine transport in the presence of inhibitor ([1]; 5 mM inhibitor, HRPE cells): 46 ± 9 nmol/10^6 cells/30 minutes | inhibition at 5000 µM ([1]; 5 mM inhibitor, HRPE cells, read-out: Inhibition of ATB0,+-mediated glycine transport): ~90% | IC50 ([1]; glycine 10 μM, HRPE cells, read-out: IC50 for inhibition of ATB0,+-mediated glycine transport): 423 ± 72 µM | Inward currents induced in ATB0,+-expressing oocytes (in words) [2]: induced marked inward currents | K0.5 (substrate concentration for half-maximal current) [2]: 369 ± 25 µM

EGF: growth factor used as mitogenic stimulus in SW480 cells
Cell proliferation [3]: 27% | Increase of Na+-dependent arginine transport [3]: 66%

CCCCCCCC(=O)O [octanoate]
Relative magnitude of substrate-induced currents ([4]; 5 mM, -50 mV): lowest

CCCC(=O)O [butyrate]
IC50 ([5]; Homo sapiens, 336 h): 37 ± 5 µM

CC(=O)C(=O)O [pyruvate]
IC50 ([5]; Homo sapiens, 336 h): 72 ± 12 µM

C[C@H](O)C(=O)O [L-lactate]
Fold increase of uptake (cRNA-injected over uninjected) [6]: 44.7 fold | Uptake, cRNA-injected oocytes [6]: 0.402 ± 0.026 | Uptake, uninjected oocytes [6]: 0.009 ± 0.001 | Inward current induced ([4]; 5 mM, -50 mV, taken as 100%): 489±94 nA | K0.5 for SLC5A8 ([4]; four oocytes): 235 ± 24 µM

C[C@@H](O)C(=O)O [D-lactate]
Uptake, cRNA-injected oocytes [6]: 1.090 ± 0.041 | Uptake, uninjected oocytes [6]: 0.028 ± 0.002 | K0.5 for SLC5A8 ([4]; four oocytes): 742 ± 330 µM

CCC(=O)OC[C@H](N)C(=O)O [O-propionyl-L-serine, O-Propionyl-L-Serine]
IC50 [1]: 332 ± 59 µM | Kt of ATB0,+-mediated glycine transport in the presence of inhibitor ([1]; 5 mM inhibitor, HRPE cells): 132 ± 37 µM | Vmax of ATB0,+-mediated glycine transport in the presence of inhibitor ([1]; 5 mM inhibitor, HRPE cells): 61 ± 13 nmol/10^6 cells/30 minutes | Inhibition of ATB0,+-mediated glycine transport (in words) ([1]; HRPE cells): inhibited glycine transport significantly | Inward currents induced in ATB0,+-expressing oocytes (in words) [2]: induced marked inward currents | K0.5 (substrate concentration for half-maximal current) [2]: 305 ± 31 µM

CCCCC(=O)O [pentanoate]
Relative magnitude of substrate-induced currents ([4]; 5 mM, -50 mV): intermediate

CCC(=O)O [propionate]
Inhibition of ATB0,+-mediated glycine transport (in words) ([1]; HRPE cells): did not inhibit glycine transport | Inward currents induced in ATB0,+-expressing oocytes (in words) [2]: did not induce detectable current | Fold increase of uptake (cRNA-injected over uninjected) [6]: 15.9 fold | Uptake, cRNA-injected oocytes [6]: 0.255 ± 0.014 | Uptake, uninjected oocytes [6]: 0.016 ± 0.001 | Charge-to-substrate transfer ratio ([4]; 25 μM substrate, four oocytes): 3.1±0.1 | Hill coefficient (h) for Na+ ([4]; 5 mM substrate): 2.0±0.1 | Relative magnitude of substrate-induced currents ([4]; 5 mM, -50 mV): maximal | K0.5 for SLC5A8 ([4]; four oocytes): 127 ± 14 µM | Effect on cell growth / apoptosis [5]: induce apoptosis | IC50 [5]: 205 ± 40 µM

[I-].[Na+] [NaI]
Current in SLC5A8 cRNA-injected oocytes (detectable or not) ([4]; 5 mM): did not induce any detectable current

N[C@@H](CO)C(=O)O [L-serine]
Inward currents induced in ATB0,+-expressing oocytes (in words) [2]: induced marked inward currents
